# Measurements from patent publication US20260048028A1, “Methods of Use for Disulfiram and Metabolites Thereof” (PS Therapy, Inc., priority 2022, published 2026).
# Legend:
# IL-8 mRNA = IL-8 mRNA levels in Aspergillus flavus infected human corneal epithelial cells; assay type: cell-based; conditions: HCE cells infected with A. flavus spores
# Description: 3 sets of human corneal epithelial (“HCE”) cells were plated and assayed for IL-8 mRNA levels as a control. 9 sets of HC cells were then infected with […] of Aspergillus flavus spores. 16 hours post infection the cells were assayed for IL-8 mRNA levels. 3 sets of HCE cells were then administered DSF in DMSO. Several hours following administration of each, IL-8 mRNA levels were assayed.
# 3 sets of HCE cells were plated and assayed for IL-8 mRNA levels as a control. 9 sets of HC cells were then infected with […] of Aspergillus flavus spores. 16 hours post infection the cells were assayed for IL-mRNA levels. 3 sets of HCE cells were then each administered NaDDC in water. Several hours following administration of each, IL-8 mRNA levels were assayed.
# IL-6 mRNA = IL-6 mRNA levels in HCE cells under hyperosmolarity; assay type: cell-based, human; conditions: 400 milliosmoles, 6 hours post hyperosmolarity induction, −control 290 milliosmoles
# Description: Sets of HCE cells were plated in iso-osmotic solutions (290 milliosmoles) […] and assayed for IL-8 and IL-6 mRNA levels as a control. Sets of HC cells were subjected to hyperosmolarity conditions (i.e. placed in a solution having an osmolarity of 400 milliosmoles) either with or without NaDDC. 6 hours post hyperosmolarity induction the cells were assayed for IL-mRNA levels.
# C57BL/6 mice = assay: Alkali-burn injury in mice, slit-lamp scoring of corneal opacity and neovascularization; assay type: in vivo; conditions: topical three times daily for 7 days (NaDDC 300 μM); for corneal opacity mean score: grading scale 0 to 4, day 7 after alkali burn; for neovascularization score: scale 0 to 3, day 7 after alkali burn
# Description: C57BL/6 mice were divided into three groups, control group 1 (n=6), group 2 (n=6) and group 3 (n=3). Each group consisted of mice with their left eye (“LE”) left undisturbed as a control, while the right eye (“RE”) of all mice in each group was subjected to alkali burn. Prior to inducing alkali burn, mice were anesthetized using an injection of an anesthetic cocktail containing ketamine (20 mg/ml) and xylazine (4 mg/ml) at a dose of approximately […] per 25 g mouse. Topical analgesia was provided using proparacaine hydrochloride (0.5%) on the corneal surface. A round filter paper piece (˜2 mm in diameter) was soaked in a 0.5 M NaOH solution. The NaOH-soaked filter paper was gently placed on the central cornea of the RE for precisely 30 seconds, generating an acute alkali burn. Following the removal of the filter paper, the RE was flushed gently with 10 ml of 1×PBS using a 10 ml syringe to ensure thorough removal of residual NaOH. Immediately after the eye flush, the treatment application was initiated for Group 2 and Group 3 mice. Group 1 was left untreated. For Group 2, a drop of 300 μM NaDDC was topically applied to the cornea of the RE. For Group 3, the RE was topically treated with commercially available prednisolone. The treatment was repeated three times daily for a duration of 7 days.
# On the 7th day following the alkali burn, corneal images were captured using slit microscopy to monitor changes in corneal opacity and neovascularization. The degree of corneal injury was evaluated and scored in a blinded manner by trained observers. Corneal opacity was evaluated using a grading scale ranging from 0 to 4, where 0 represented a completely clear cornea, 1 indicated slight haziness with the iris and pupil easily visible, 2 denoted slight opacity with detectable iris and pupil, 3 indicated significant opacity with difficulty in detecting pupils, and 4 represented complete opacity with no view of the pupil. The degree of neovascularization was scored on a scale of 0 to 3, with 0 indicating no new vessels, 1 representing new vessels present at the corneal limbus, 2 denoting new vessels extending from the corneal limbus toward the corneal centre, and 3 indicating new vessels spanning the entire corneal centre. At the end of the treatment period, mice from control group 1 and NaDDC treated group 2 were sacrificed and the eyes were enucleated for further analysis, including RT-PCR studies, to investigate the expression levels of tumor necrosis factor alpha (“TNFα”), gasdermin D (“GSDMD”), intercellular adhesion molecule 1 (“ICAM1”) and transforming growth factor beta 1 (“TGFβ1”).
# [1] = system: tumor necrosis factor alpha (TNFα); assay: Alkali-burn injury in mice, RT-PCR expression of TNFα in eyes; assay type: in vivo; conditions: RT-PCR of enucleated eyes after 7 days of topical 300 μM NaDDC three times daily
# Description: (§1) C57BL/6 mice were divided into three groups, control group 1 (n=6), group 2 (n=6) and group 3 (n=3). Each group consisted of mice with their left eye (“LE”) left undisturbed as a control, while the right eye (“RE”) of all mice in each group was subjected to alkali burn. Prior to inducing alkali burn, mice were anesthetized using an injection of an anesthetic cocktail containing ketamine (20 mg/ml) and xylazine (4 mg/ml) at a dose of approximately […] per 25 g mouse. Topical analgesia was provided using proparacaine hydrochloride (0.5%) on the corneal surface. A round filter paper piece (˜2 mm in diameter) was soaked in a 0.5 M NaOH solution. […]
# (§2) On the 7th day following the alkali burn, corneal images were captured using slit microscopy to monitor changes in corneal opacity and neovascularization. The degree of corneal injury was evaluated and scored in a blinded manner by trained observers. Corneal opacity was evaluated using a grading scale ranging from 0 to 4, where 0 represented a completely clear cornea, 1 indicated slight haziness with the iris and pupil easily visible, 2 denoted slight opacity with detectable iris and pupil, 3 indicated significant opacity with difficulty in detecting pupils, and 4 represented complete opacity with no view of the pupil. […]
# gasdermin D (GSDMD) = assay: Alkali-burn injury in mice, RT-PCR expression of GSDMD in eyes; assay type: in vivo; conditions: RT-PCR of enucleated eyes after 7 days of topical 300 μM NaDDC three times daily
# Description: as §1, §2
# [2] = system: intercellular adhesion molecule 1 (ICAM1); assay: Alkali-burn injury in mice, RT-PCR expression of ICAM1 in eyes; assay type: in vivo; conditions: RT-PCR of enucleated eyes after 7 days of topical 300 μM NaDDC three times daily
# Description: as §1, §2
# [3] = system: transforming growth factor beta 1 (TGFβ1); assay: Alkali-burn injury in mice, RT-PCR expression of TGFβ1 in eyes; assay type: in vivo; conditions: RT-PCR of enucleated eyes after 7 days of topical 300 μM NaDDC three times daily
# Description: as §1, §2
# [4] = NaDDC in water given 16 hours post infection
# [5] = DSF in DMSO given 16 hours post infection
SMILES,IL-8 mRNA levels (% increase from uninfected) (IL-8 mRNA; [4]) [%],IL-8 mRNA levels (% reduction from water) (IL-8 mRNA; [4]) [%],IL-6 mRNA levels (% increase from −control) (IL-6 mRNA) [%],corneal opacity mean score (C57BL/6 mice),neovascularization score (C57BL/6 mice),"expression level of TNFα, % of untreated control group [1] [%]","GSDMD expression, % of untreated control group (gasdermin D (GSDMD)) [%]","ICAM1 expression, % of untreated control group [2] [%]","TGFβ1 expression, % of untreated control group [3] [%]",IL-8 mRNA levels (% change from uninfected) (IL-8 mRNA; [5]) [%],IL-8 mRNA levels (% reduction from water) (IL-8 mRNA; [5]) [%]
"CCN(CC)C(=S)[S-].[Na+] [NaDDC, sodium;N,N-diethylcarbamodithioate]",10.5,85.19,100,0.83,0,8,42,5,28,–,–
"CCN(CC)C(=S)SSC(=S)N(CC)CC [DSF, 1,1′-disulfanediylbis(N,N-diethylmethanethioamide), reference compound]",–,–,–,–,–,–,–,–,–,21.2,88.5
"C[C@]12C=CC(=O)C=C1CC[C@@H]1[C@@H]2[C@@H](O)C[C@@]2(C)[C@H]1CC[C@]2(O)C(=O)CO [prednisolone, reference compound]",–,–,–,2.67,0,–,–,–,–,–,–
